Measurements: PMC11253539, “Structural and mechanistic insights into the transport of aristolochic acids and their active metabolites by human serum albumin” (The Journal of Biological Chemistry, 2024)
Several values for one entry are separate records, joined by “and”; a condition that tells them apart may be missing. Identical values can stand only once. Like-named read-outs stand apart in the source and are kept apart here.

Assays:
HSA (defatted HSAA3782) = target: T1, HSA (defatted HSAA3782) (Homo sapiens, UniProt P02768); assay: Isothermal titration calorimetry of AA-HSA interactions; type: binding; conditions: for Ka (macroscopic association constant), Site 1 / Ka (macroscopic association constant), Site 2 / Ka (KA1), site 1 / Ka (KA2), site 2 / Kd: two-site model; for Ka (KA1), site 1: site 1, 25 °C; for Ka (KA2), site 2: site 2, 25 °C; for ΔG°, Site 1 / ΔG°, Site 2: ΔG° = −RTlnKa, T = 298 K
T1 construct: two human serum albumin (HSA) samples derived from pooled human plasma; purchased Sigma Aldrich A3782; host or cells: pooled human plasma
Source text: We have assessed the binding affinities of AA-I and AA-II for HSAA3782 by conducting a series of ITC experiments. […] An initial analysis of the AA-HSA binding isotherms using conventional fitting programs provides a reasonable estimate for the binding stoichiometry of two AA ligands per HSA molecule. […] Given the challenges associated with baseline assignments, we subsequently employed the NITPIC/SEDPHAT/GUSSI software suite ([60]) to ensure unambiguous analysis of the binding isotherms. Singular value decomposition yields baseline-corrected association data that are analyzed via a two-site binding model to derive macroscopic affinities for AA-HSA interactions in accordance with the following relation: A+B+B↔[AB]+B↔ABB where A represents the HSA macromolecule and B represents ligand AA-I or AA-II. This binding model implies that both sites are occupied with all possible ligation states coexisting in equilibrium.
Binding parameters for the association of defatted HSAA3782 with AA-I and AA-II were determined calorimetrically employing a MicroCal VP-ITC instrument (Malvern Panalytical). Protein stock solutions (0.5–1.5 mM) were prepared by BME reduction to disrupt potential CyS34-CyS34 dimers and dialyzed against three 500 ml exchanges of 10 mM sodium phosphate buffer (pH 7.5). Aliquots of the respective AA ligand stocks were dissolved in protein dialysate and the final DMSO concentration adjusted to 2%. The HSA standard was prepared by diluting an appropriate aliquot in dialysate containing 2% DMSO to match the syringe solution contents. Each ITC experiment consists of thirty consecutive 10.0 μl injections during which the reaction heat is monitored and integrated over a 5-min interval under constant stirring conditions. The experimental protocol has been designed to ensure that there is at least a 15-fold excess of either AA-I or AA-II (75–200 μM) in the titration syringe relative to the initial HSA concentration (5–10 μM) in the reaction cell.
Binding isotherms acquired at 25 °C were generated by recording the integrated reaction heats normalized for AA concentration versus ligand:protein ratio. […] We subsequently applied the NITPIC/SEDPHAT/GUSSI suite of software programs ([60], [88]) to ensure unbiased baseline assignments and peak integrations that facilitated selection of an appropriate binding model to characterize this protein-ligand system. The SEDPHAT program affords significant flexibility by allowing implicit and explicit uncertainty corrections that facilitate assessment of incompetent binding species in the protein and/or ligand. A nonlinear least squares analysis of the resultant profiles invoking a symmetric two-site binding model yields an optimal fit of the isotherms and requisite macroscopic parameters for AA-HSA interactions.

[1] = target: T2, HSA (HSAA3782 and HSAA8763 mercaptoalbumins) (Homo sapiens, UniProt P02768); assay: HSA Trp214 fluorescence quenching assay; type: binding
T2 construct: two human serum albumin (HSA) samples derived from pooled human plasma; purchased Sigma Aldrich A3782; A8763; host or cells: pooled human plasma
Source text: Ligand-induced quenching of the intrinsic HSA fluorescence has been assessed by monitoring a single Trp^214 residue located within the IIA binding cavity to derive equilibrium dissociation constants (KD) for numerous endogenous and exogenous molecules including aristolochic acids ([51], [52]). […] Addressing this deficiency, we prepared mercaptoalbumins from HSAA3782 and HSAA8763, consisting of fatty acid-free and limited fatty acid-containing HSA, respectively. We subsequently employed these well-defined HSA samples to conduct comparative fluorescence quenching studies in the presence of AA-I, AA-II, and their respective metabolites while concurrently evaluating the impact of fatty acid content on relative binding affinities.
Equilibrium fluorescence spectra of monomeric HSA samples were collected on an ISS PC1 photon counting spectrophotometer. An excitation wavelength of 295 nm was employed for HSAA3782 and HSAA8763 to selectively monitor tryptophan and avoid contributions of tyrosine residues. The excitation and emission slits were set to 1 nm and 2 nm, respectively. Prior to initiating the experiment, a stock solution of each AA compound (i.e., AA-I, AA-II, AL-I-NOH, AL-II-NOH, AL-I-NOAc. and AL-I-NOSO3) was prepared in DMSO by serial dilution to a 100-fold excess of their final concentration employed in the quenching experiments. HSA samples were diluted to 0.5, 1.0, and 2.5 μM in 10 mM KPi buffer (pH 7.5) and divided into 1 ml aliquots in Eppendorf tubes. A 10 μl aliquot of each AA compound was added to the HSA solutions to achieve a 0.2 to 50 μM concentration range in 1% DMSO. Each AA-HSA mixture was allowed to equilibrate at room temperature for at least 5 min, transferred to a 10 mm × 5 mm quartz cuvette, and emission spectrum recorded over the wavelength range of 310 to 460 nm employing a 2 nm step interval. Following each measurement, the quartz cuvette was cleaned, and the experiment repeated with the next AA:HSA ratio. […] Peak emission intensities at 340 nm were employed to construct fluorescence titration profiles for each AA compound.
Fluorescence titration profiles of the HSA quenching assays were generated using SigmaPlot 13.0. When applicable, the mean and standard deviations obtained from 3 to 5 independent measurements are reported. […] Invoking the SigmaPlot software suite, we applied the following binding model ([87]): F=Ffree−(Ffree−Fbound)∗[…] where F represents the fluorescence signal observed at each ligand concentration (Lt) and Pt is the total protein concentration. Upon fitting, one obtains values of Ffree and Fbound that correspond to the fluorescence of unbound and fully bound HSA, respectively. The number of binding sites and their respective affinities has been determined for AA-I and AA-II interactions with HSA via application of isothermal titration calorimetry as described in the following section.

HSA = tested on: HSA; set-up: method as in PMID 16413837; conditions: numerous binding sites; cited from earlier work
[2] = ITC, Site 1, 10 mM NaPO4 pH 7.5, 25 °C
[3] = ITC, Site 2, 10 mM NaPO4 pH 7.5, 25 °C
[4] = fatty acid-containing HSA, mean ± SD of 3 to 5 measurements, 10 mM KPi pH 7.5, read-out: KDapp (HSAA8763)
[5] = fatty acid-free HSA, mean ± SD of 3 to 5 measurements, 10 mM KPi pH 7.5, read-out: KDapp (HSAA3782)

T2 sequence (P02768 25-609): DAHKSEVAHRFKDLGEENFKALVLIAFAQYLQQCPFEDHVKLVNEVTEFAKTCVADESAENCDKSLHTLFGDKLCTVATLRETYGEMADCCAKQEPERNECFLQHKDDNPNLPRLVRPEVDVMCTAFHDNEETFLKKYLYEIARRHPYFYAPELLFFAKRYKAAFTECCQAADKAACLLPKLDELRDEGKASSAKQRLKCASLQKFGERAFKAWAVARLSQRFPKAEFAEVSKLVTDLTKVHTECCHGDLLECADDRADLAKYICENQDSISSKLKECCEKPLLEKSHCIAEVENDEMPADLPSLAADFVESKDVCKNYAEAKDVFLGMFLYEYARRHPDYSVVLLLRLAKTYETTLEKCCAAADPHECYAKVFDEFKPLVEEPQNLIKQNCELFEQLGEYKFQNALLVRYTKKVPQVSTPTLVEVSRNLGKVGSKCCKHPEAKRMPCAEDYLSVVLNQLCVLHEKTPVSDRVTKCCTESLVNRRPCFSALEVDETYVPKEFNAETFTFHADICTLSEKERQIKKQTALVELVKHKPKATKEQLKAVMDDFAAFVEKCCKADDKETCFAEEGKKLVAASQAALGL
T1 sequence (P02768 25-609): as above

Structure (SMILES) | Ka (macroscopic association constant), Site 1 (HSA (defatted HSAA3782); [2]) | Ka (macroscopic association constant), Site 2 (HSA (defatted HSAA3782); [3]) | Ka (KA1), site 1 (HSA (defatted HSAA3782); ITC) [M⁻¹] | Ka (KA2), site 2 (HSA (defatted HSAA3782); ITC) [M⁻¹] | ΔG°, Site 1 (HSA (defatted HSAA3782)) [kcal/mol] | ΔG°, Site 2 (HSA (defatted HSAA3782)) [kcal/mol] | Kd [1, 4] [µM] | Kd [1, 5] [µM] | also measured
COc1cccc2c1cc([N+](=O)[O-])c1c(C(=O)O)cc3c(c12)OCO3 [AA-I, aristolochic acid I] | 1.5 10^6 M^−1 and 1.50 ± 0.18 10^6 M^−1 | 0.5 10^6 M^−1 and 0.54 ± 0.04 10^6 M^−1 | 1.5e+06 | 540000 | -8.41 ± 1.00 | -7.82 ± 0.58 | – | – | Kd (HSA (defatted HSAA3782); KD, Site 1, ITC, Site 1, 10 mM NaPO4 pH 7.5, 25 °C): 0.69 ± 0.08 µM; Kd (HSA (defatted HSAA3782); KD, Site 2, ITC, Site 2, 10 mM NaPO4 pH 7.5, 25 °C): 1.87 ± 0.12 µM; Kd [1]: 0.43 ± 0.03 µM
O=C(O)c1cc2c(c3c1c([N+](=O)[O-])cc1ccccc13)OCO2 [AA-II, aristolochic acid II] | 0.84 ± 0.07 10^6 M^−1 | 0.90 ± 0.10 10^6 M^−1 | 840000 | 900000 | -8.10 ± 0.67 | -8.12 ± 0.82 | 0.36 ± 0.03 | 0.63 ± 0.1 | association constant, first site (HSA (defatted HSAA3782); ITC, first of two sites, as given in abstract): 8.4 10^5 M^−1; association constant, second site (HSA (defatted HSAA3782); ITC, second of two sites, as given in abstract): 9.0 10^5 M^−1; Kd (HSA (defatted HSAA3782); ITC, Site 1, 10 mM NaPO4 pH 7.5, 25 °C, read-out: KD, Site 1): 1.19 ± 0.19 µM; Kd (HSA (defatted HSAA3782); ITC, Site 2, 10 mM NaPO4 pH 7.5, 25 °C, read-out: KD, Site 2): 1.11 ± 0.11 µM
COc1cccc2c1cc1c3c(cc4c(c32)OCO4)C(=O)N1OC(C)=O [AL-I-NOAc] | – | – | – | – | – | – | 0.59 ± 0.07 | 0.67 ± 0.13 | –
COc1cccc2c1cc1c3c(cc4c(c32)OCO4)C(=O)N1O [AL-I-NOH, N-hydroxyaristolactam I] | – | – | – | – | – | – | 0.74 ± 0.06 | 0.65 ± 0.06 | –
CCCCCCCCCCCCCC(=O)O [myristic acid] | – | – | – | – | – | – | – | – | affinities for HSA binding sites (HSA): 10^4 to 10^7 M^−1
